According to patent US20230219904A1 (SYNGENTA CROP PROTECTION AG, priority 2020, published 2023):

What was measured:
Format in all cases: in vivo
Conditions in all cases: evaluated after 13 days
[1] = system: Echinochloa crus-galh (ECHCG); experiment: Pre-emergence herbicidal glasshouse test (Table B1)
Method in brief: (§1)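 Plants were grown in standard soil under controlled glasshouse conditions (24/16° C, 14 hours light, 65% humidity) and treated by spraying at 500 g/h unless otherwise indicated. Percentage damage was evaluated after 13 days and expressed on a five-point scale.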

[2] = system: Amaranthus retoflexus (AMARE); experiment: as above
Method in brief: as §1

[3] = system: Ipomoea hederacea (IPOHE); experiment: as above
Method in brief: as §1

Setaria faberi (SETFA) [4] = experiment: as above
Method in brief: as §1

[5] = system: Abutilon theophrasti (ABUTH); experiment: as above
Method in brief: as §1

[6] = system: Echinochloa crus-galh (ECHCG); experiment: Post-emergence herbicidal glasshouse test (Table B1)
Method in brief: as §1

[7] = system: Amaranthus retoflexus (AMARE); experiment: as above
Method in brief: as §1

[8] = system: Ipomoea hederacea (IPOHE); experiment: as above
Method in brief: as §1

Setaria faberi (SETFA) [9] = experiment: as above
Method in brief: as §1

[10] = system: Abutilon theophrasti (ABUTH); experiment: as above
Method in brief: as §1

Row | Compound | PRE Application ECHCG, percentage damage on five-point scale ([1]; applied at 125 g/ha) | PRE Application AMARE, percentage damage on five-point scale ([2]; applied at 125 g/ha) | PRE Application IPOHE, percentage damage on five-point scale ([3]; applied at 125 g/ha) | PRE Application SETFA, percentage damage on five-point scale (Setaria faberi (SETFA) [4]; applied at 125 g/ha) | PRE Application ABUTH, percentage damage on five-point scale ([5]; applied at 125 g/ha) | POST Application ECHCG, percentage damage on five-point scale ([6]; applied at 125 g/ha) | POST Application AMARE, percentage damage on five-point scale ([7]; applied at 125 g/ha) | POST Application IPOHE, percentage damage on five-point scale ([8]; applied at 125 g/ha) | POST Application SETFA, percentage damage on five-point scale (Setaria faberi (SETFA) [9]; applied at 125 g/ha) | POST Application ABUTH, percentage damage on five-point scale ([10]; applied at 125 g/ha) | PRE Application ECHCG, percentage damage on five-point scale ([1]; applied at 500 g/h) | PRE Application AMARE, percentage damage on five-point scale ([2]; applied at 500 g/h) | PRE Application IPOHE, percentage damage on five-point scale ([3]; applied) | PRE Application SETFA, percentage damage on five-point scale (Setaria faberi (SETFA) [4]; applied at 500 g/h) | PRE Application ABUTH, percentage damage on five-point scale ([5]; applied at 500 g/h) | POST Application ECHCG, percentage damage on five-point scale ([6]; applied at 500 g/h) | POST Application AMARE, percentage damage on five-point scale ([7]; applied at 500 g/h) | POST Application IPOHE, percentage damage on five-point scale ([8]; applied at 500 g/h) | POST Application SETFA, percentage damage on five-point scale (Setaria faberi (SETFA) [9]; applied at 500 g/h) | POST Application ABUTH, percentage damage on five-point scale ([10]; applied at 500 g/h)
1 | Cn1nnnc1NC(=O)c1ccc(OC(F)F)c(NC(=O)c2ccccn2)c1Cl [Compound 1.108] | 2 (2=20-39%) | 5 (5=80-100%) | 2 (2=20-39%) | 3 (3=40-59%) | 4 (4=60-79%) | 5 (5=80-100%) | 5 (5=80-100%) | 4 (4=60-79%) | 4 (4=60-79%) | 4 (4=60-79%) | – | – | – | – | – | – | – | – | – | –
2 | CCCn1nnnc1NC(=O)c1ccc(OC(F)(F)F)c(NC(C)=O)c1Cl [Compound 1.129] | – | – | – | – | – | – | – | – | – | – | 4 (4=60-79%) | 5 (5=80-100%) | 2 (2=20-39%) | 1 (1=0-19%) | 5 (5=80-100%) | 5 (5=80-100%) | 5 (5=80-100%) | 5 (5=80-100%) | 5 (5=80-100%) | 5 (5=80-100%)
3 | CC(F)C(=O)Nc1c(OC(F)F)ccc(C(=O)Nc2nnnn2C)c1Cl (centres unmarked) [Compound 1.025] | 3 (3=40-59%) | 5 (5=80-100%) | 4 (4=60-79%) | 3 (3=40-59%) | 5 (5=80-100%) | 5 (5=80-100%) | 5 (5=80-100%) | 2 (2=20-39%) | 4 (4=60-79%) | 4 (4=60-79%) | – | – | – | – | – | – | – | – | – | –
4 | CCC(=O)Nc1c(OC(F)F)ccc(C(=O)Nc2nnnn2C)c1Cl [Compound 1.022] | 5 (5=80-100%) | 5 (5=80-100%) | 4 (4=60-79%) | 5 (5=80-100%) | 5 (5=80-100%) | 5 (5=80-100%) | 5 (5=80-100%) | 4 (4=60-79%) | 5 (5=80-100%) | 5 (5=80-100%) | – | – | – | – | – | – | – | – | – | –
5 | CCCC(=O)Nc1c(OC(F)(F)F)ccc(C(=O)Nc2nnnn2CC)c1Cl [Compound 1.114] | – | – | – | – | – | – | – | – | – | – | 5 (5=80-100%) | 5 (5=80-100%) | 3 (3=40-59%) | 2 (2=20-39%) | 5 (5=80-100%) | 5 (5=80-100%) | 5 (5=80-100%) | 5 (5=80-100%) | 5 (5=80-100%) | 5 (5=80-100%)
